Source: patent publication US3953449A, “2-(4-M-CF3 or -SCF3 phenylpiperazino)-ethyl benzoates” (priority 1973, dated 1976)
Read-outs that look alike come from different tables or passages of the source.

Experiments:
[1] = Acute toxicity, 50% lethal dose (LD50), oral administration, mice; details: mouse, in vivo, Swiss mice of the CDl strain, both sexes, calculated graphically
Description: The tests were carried out on Swiss mice of the CDl strain, of both sexes, and the 50% lethal doses (LD50) were calculated graphically.

[2] = test system: pain induced in CDl mice by the intraperitoneal injection of acetic acid; experiment: Koster test: analgesic effect against pain induced by intraperitoneal injection of acetic acid, oral administration; assay type: in vivo; details: Mus musculus, read-out: Analgesic activity, Koster test ED50 (50% effective dose)
Text: The analgesic effect was investigated in accordance with two conventional experimental procedures.

[3] = oral administration, CDl mice, acetic acid i.p.

COc1cc(C(=O)OCCN2CCN(c3cccc(C(F)(F)F)c3)CC2)cc(OC)c1OC [SLB 169, 2-(4-m-Trifluoromethylphenylpiperazino)-ethyl 3,4,5-trimethoxybenzoate]
LD50 [1]: 2200 mg/kg | ED50 [2, 3]: 15 mg/kg

O=C(OCCN1CCN(c2cccc(C(F)(F)F)c2)CC1)c1ccccc1 [SLB 108, 2-(4-m-Trifluoromethylphenylpiperazino)-ethyl benzoate]
LD50 [1]: > 4000 mg/kg | ED50 ([2]; po): 10 mg/kg

Cc1c(N(C)C)c(=O)n(-c2ccccc2)n1C [Amidopyrine, reference compound]
ED50 [2, 3]: 40 mg/kg

CCCC(CCC)C(=O)OCCN1CCN(c2cccc(C(F)(F)F)c2)CC1 [SLB 198, 2-(4-m-Trifluoromethylphenyl-piperazino)-ethyl 2-n-propyl-pentanoate]
LD50 [1]: 2200 mg/kg | ED50 [2, 3]: 4.3 mg/kg

CC(=O)OCCN1CCN(c2cccc(C(F)(F)F)c2)CC1 [SLB 093, 2-(4-m-Trifluoromethylphenylpiperazino)-ethyl acetate]
LD50 [1]: 925 mg/kg | ED50 [2, 3]: 3.5 mg/kg
